Data taken from EP1954678B1, “NOVEL NK1 AND NK2 ANTAGONISTS” (Abbott Products GmbH, priority 2005, dated 2007).
Like-named read-outs stand apart in the source and are kept apart here.

Tests used:
human NK2 receptors = target: T1, human NK2 receptors (Homo sapiens, UniProt P21452); assay: Binding of the test substances to NK2 receptors in vitro ([3H]-SR 48968 displacement, CHO cell membranes); settings: [3H]-SR 48968 as ligand; membranes of CHO cells expressing the human NK2 receptor; 90 min incubation; Ki calculated from IC50; read-out: pKi (NK2) (converted)
T1 construct: expressed in transfected cells; host or cells: CHO cells (membrane preparation)
T1 sequence (P21452 1-398): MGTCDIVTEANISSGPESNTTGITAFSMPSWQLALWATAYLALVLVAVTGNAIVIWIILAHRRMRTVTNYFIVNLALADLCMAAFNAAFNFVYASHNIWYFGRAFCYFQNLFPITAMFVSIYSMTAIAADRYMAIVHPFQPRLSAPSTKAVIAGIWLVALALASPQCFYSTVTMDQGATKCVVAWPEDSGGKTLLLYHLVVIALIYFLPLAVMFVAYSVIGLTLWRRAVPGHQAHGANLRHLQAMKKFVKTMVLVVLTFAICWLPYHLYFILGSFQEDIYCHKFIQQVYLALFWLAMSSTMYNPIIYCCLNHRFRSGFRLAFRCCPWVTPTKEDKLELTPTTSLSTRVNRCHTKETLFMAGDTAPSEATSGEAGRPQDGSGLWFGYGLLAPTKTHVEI
Method: The affinity of the test substances to human NK2 receptors was measured in vitro. The ability of the test substances to displace the selective NK2 receptor antagonist SR 48968 (= saredutant) used as reference ligand from its corresponding bond was determined.
The receptor binding studies were carried out with radioactively marked [^3H]-SR 48968 (from Amersham) as ligand. For the binding test, different samples of a membrane preparation of CHO cells (= egg cells of the Chinese hamster, Chinese hamster oocytes), which express the human NK2 receptor (for preparation, see N.P. Gerard et al., Journal of Biological Chemistry 265/33 (1990) 20455-20462), were incubated for 90 minutes (= min.) with a solution of the marked ligand, with the incubation mixtures containing no test substance or additions of different concentrations of test substance. Then in each case the membrane-bound ligands in the samples were separated from free ligands by filtration. The fraction remaining in the filter was washed several times with buffer solution, before its radioactivity was measured using a liquid scintillation counter. That concentration which effects half-maximum displacement of the bound reference ligand was determined as IC50 of the respective test substance. The inhibition constant (Ki value) of the test substance was calculated from the respective IC50 value, and was stated as the negative logarithmised value thereof (pKi).
If several measurements were performed, the average thereof was listed each time. The pKi value is a measurement of the affinity of the test substances to human NK2 receptors.

NK2 receptors = target: T2, NK2 receptors (Cavia porcellus, UniProt Q64077); assay: Functional NK2 antagonism on isolated guinea pig gall-bladder preparations (NKA induced contraction); parameters: from tissue; host or cells: guinea pig gall-bladder preparations; species or system Pirbright-White guinea pigs
T2 sequence (Q64077 1-402): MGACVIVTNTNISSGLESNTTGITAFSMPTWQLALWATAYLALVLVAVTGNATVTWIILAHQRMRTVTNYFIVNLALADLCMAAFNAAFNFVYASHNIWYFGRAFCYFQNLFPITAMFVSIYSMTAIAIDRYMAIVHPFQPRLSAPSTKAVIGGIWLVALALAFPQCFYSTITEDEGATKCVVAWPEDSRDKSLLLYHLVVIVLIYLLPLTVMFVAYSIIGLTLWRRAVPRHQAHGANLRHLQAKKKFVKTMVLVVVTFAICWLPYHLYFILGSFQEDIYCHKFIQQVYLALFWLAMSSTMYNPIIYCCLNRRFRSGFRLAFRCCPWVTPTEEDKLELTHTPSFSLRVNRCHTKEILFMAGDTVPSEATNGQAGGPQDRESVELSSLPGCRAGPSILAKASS
Method: The NK2 receptor-antagonising action of the test substances was determined on isolated gall-bladder preparations from Pirbright-White guinea pigs, held in an oxygen-saturated nutrient solution. To this end, the preparations were fastened on one hand in the nutrient solution to organ holders and on the other hand on a force meter by a thread.
The concentration of the test substances was increased iteratively in the subsequent experiments as a function of the result in logarithmic whole or half steps, until at least one concentration above or below 50% inhibition of contraction was determined (up to at most 10^-5 mol/l). For each concentration, the average value of inhibition of contraction was calculated from 2 to 4 preparations. In each case, the concentration of half-maximum inhibition (IC50) per test substance was calculated as characteristic variable.

NK1 receptors = NK1 receptors (Cavia porcellus, UniProt P30547); assay: NK-1-receptor-antagonistic effectiveness in vivo in anaesthetised guinea pigs (NKA test stimulus, early hypotension); parameters: from tissue; host or cells: whole anaesthetised guinea pig (in vivo); species or system Pirbright-White guinea pigs; settings: for ED50: guinea pig; for oral activity as NK1 receptor antagonist: result in words, oral administration
Chain of NK1 receptors (P30547 whole entry): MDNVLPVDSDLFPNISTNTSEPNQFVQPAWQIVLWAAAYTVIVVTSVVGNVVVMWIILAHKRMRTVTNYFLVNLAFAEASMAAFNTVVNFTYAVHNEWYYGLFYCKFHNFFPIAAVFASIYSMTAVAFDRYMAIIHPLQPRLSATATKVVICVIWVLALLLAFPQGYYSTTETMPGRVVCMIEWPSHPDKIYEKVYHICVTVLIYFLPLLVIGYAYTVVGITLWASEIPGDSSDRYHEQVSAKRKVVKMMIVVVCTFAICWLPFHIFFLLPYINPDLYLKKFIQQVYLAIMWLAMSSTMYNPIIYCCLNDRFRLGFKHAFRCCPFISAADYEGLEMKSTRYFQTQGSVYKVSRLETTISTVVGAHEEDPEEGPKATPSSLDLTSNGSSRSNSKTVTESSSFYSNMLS
Source text: The NK-1- and NK-2-antagonistic activities of the test substances were investigated in anaesthetised guinea pigs in each case after intravenous (= i.v.) and oral (= p.o.) administration in vivo. With the present test model it is possible to detect both NK-2-antagonistic effects in three different organ systems (respiratory tracts, colon and circulation) and NK-1-antagonistic effects (rapid drop in blood pressure) in an animal simultaneously.
Pirbright-White guinea pigs of a body weight of 500-700 g were anaesthetised with ketamine/xylazine (67/13 mg/kg subcutaneously, initial dose, further doses administered as required). The animals were provided with an intravenous catheter in order to administer the substance and an intra-arterial catheter to measure the blood pressure. The animals were artificially ventilated via a tracheal cannula and the respiratory pressure was recorded by means of a pressure transducer. A balloon was introduced into the distal colon of the animals for manometric recording of colon motility by means of a pressure transducer. Blood pressure, heart rate, respiratory pressure and colonic pressure were measured continuously for each animal and plotted on a recorder and by means of a digital data-processing system. […] The second phase of delayed hypotension (= phase of maximum hypotension after 2-5 min.) on the other hand is mediated via NK-2 receptors, since they can be blocked by specific NK-2 receptor antagonists. […] Table 6: NK-1- and NK-2-receptor-antagonistic effective-ness of the test substances of Formula I on guinea pigs in vivo after intravenous administration
These ED50 values obtained from cumulative dose effect curves are plotted in table 6.
The antagonistic effects of the test substances were then determined as "area under the curve" ("AUC") over the investigation period after administration of the test substances (1 - 180 min after administration) and the ED50 values after oral administration obtained therefrom were plotted in table 7. Table 7: NK-1- and NK-2-receptor-antagonistic effective-ness of the test substances of Formula I on guinea pigs in vivo after oral administration

[1] = iv, read-out: ED50 iv after 1 min (cumulative) NK1 (early hypotension)
[2] = oral, from AUC of antagonistic effect 1 - 180 min after administration, read-out: ED50 AUC1-180 min oral NK1 (early hypotension)

| Ki (human NK2 receptors) | IC50 (NK2 receptors) | ED50 (NK1 receptors; [1]) | ED50 (NK1 receptors; [2]) | oral activity as NK1 receptor antagonist (NK1 receptors) | Structure (SMILES) |
| --- | --- | --- | --- | --- | --- |
| 7.94 nM | 2 nM | 0.077 µmol/kg | 22.9 µmol/kg | active orally | CN(C[C@@H](CCN1CCN([C@@H](c2ccco2)[C@H](O)CO)CC1)c1ccc(Cl)c(Cl)c1)C(=O)c1cc(C#N)cc2ccccc12 [Compound 1, 3-cyano-N-[(2S)-2-(3,4-dichlorophenyl)-4-{4-[(1R,2S)-1-(2-furyl)-2,3-dihydroxypropyl]piperazin-1-yl}butyl]-N-methyl-1-naphthamide] |
| 79.4 nM | 20 nM | < 0.01 µmol/kg | 15.2 µmol/kg | active orally | CN(C[C@@H](CCN1CCN([C@@H](c2ccco2)[C@H](O)[C@@H](O)[C@H](O)CO)CC1)c1ccc(Cl)c(Cl)c1)C(=O)c1cc(C#N)cc2ccccc12 [Compound 2, 3-cyano-N-[(2S)-2-(3,4-dichlorophenyl)-4-{4-[(1R,2S,3R,4R)-1-(2-furyl)-2,3,4,5-tetrahydroxypentyl]piperazin-1-yl}butyl]-N-methyl-1-naphthamide] |
| 39.8 nM | 39.8 nM | 0.071 µmol/kg | – | – | CN(C[C@@H](CCN1CCN(C(CO)(CO)c2ccco2)CC1)c1ccc(Cl)c(Cl)c1)C(=O)c1cc(C#N)cc2ccccc12 [Compound 6, 3-cyano-N-[(2S)-2-(3,4-dichlorophenyl)-4-{4-[1-(2-furyl)-2-hydroxy-1-(hydroxymethyl)ethyl]piperazin-1-yl}butyl]-N-methyl-1-naphthamide] |
| 25.1 nM | 15.8 nM | 0.093 µmol/kg | – | – | CN(C[C@@H](CCN1CCN([C@@H](c2ccco2)[C@H]2COC(=O)O2)CC1)c1ccc(Cl)c(Cl)c1)C(=O)c1cc(C#N)cc2ccccc12 [Compound 11, 3-cya no-N-[(2S)-2-(3,4-dichlorophenyl)-4-(4-{(R)-2-furyl[(4S)-2-oxo-1,3-dioxolan-4-yl]methyl}piperazin-1-yl)butyl]-N-methyl-1-naphthamide] |
